Values after ≈ are worked out from the molar mass of the structure shown.
What was measured:
[1] = Stability in acidic environment at 25° C. (half-life of initial microbiological activity); assay type: physicochemical; conditions: aqueous solution
Procedure: Stability in acidic environnment at 25° C. of the novel
Note: t 1/2 represents the time for reducing to one half the initial powe
of the antibiotic determined by microbiological method through diffusion
on a plate using the test stock Microccocus luteus (Sarcina lutea) ATCC

[2] = system: Streptococcus pyogenes ATCC 8668 LRP 34; assay: Minimum bactericidal concentration (MBC); assay type: cell-based
Excerpt: (§1) the bacterial power, expressed as the minimum bactericidal power (MBC) against some Gram positive aerobic stocks (table 5).

[3] = system: Corynebacterium diphteriae LRP 24; assay: Minimum bactericidal concentration (MBC); assay type: cell-based
Excerpt: as §1

[4] = system: Streptococcus faecalis subs. zymogenes LRP 61; assay: Minimum bactericidal concentration (MBC); assay type: cell-based
Excerpt: as §1

[5] = system: Streptococcus pneumoniae ATCC 6303 LRP 35; assay: Minimum bactericidal concentration (MBC); assay type: cell-based
Excerpt: as §1

[6] = system: Staphylococcus aureus ATCC 6538 P LRP 39; assay: Minimum bactericidal concentration (MBC); assay type: cell-based
Excerpt: as §1

Shigella sonnei LRP 5 = assay: Bacteriostatic power in solid medium (MIC); assay type: cell-based; conditions: LRP5, read-out: Minimum inhibiting concentration
Excerpt: (§2) the bacteriostatic power, expressed as the minimum inhibiting concentration (MIC) against both aerobic and anaerobic, Gram positive and Gram negative, bacterial stocks: the related results are reported in the tables 2 and 3.

[7] = system: Proteus vulgaris ATCC 6380 LRP 13; assay: Bacteriostatic power in solid medium (MIC); assay type: cell-based; conditions: Proteus vulgaris, ATCC6380, read-out: Minimum inhibiting concentration
Excerpt: as §2

[8] = system: Bacteroides fragilis ATCC 23745 LRP 205; assay: Bacteriostatic power in solid medium (MIC); assay type: cell-based; conditions: Bacteroides fragilis, ATCC23745, read-out: Minimum inhibiting concentration
Excerpt: as §2

[9] = system: Streptococcus pyogenes ATCC 8668 LRP 34; assay: Bacteriostatic power in solid medium (MIC); assay type: cell-based; conditions: Streptococcus pyogenes, ATCC8668, read-out: Minimum inhibiting concentration
Excerpt: as §2

[10] = system: Streptococcus pneumoniae ATCC 6303 LRP 53; assay: Bacteriostatic power in solid medium (MIC); assay type: cell-based; conditions: Streptococcus pneumoniae, ATCC6303, read-out: Minimum inhibiting concentration
Excerpt: as §2

[11] = system: Pseudomonas aeruginosa LRP 9; assay: Bacteriostatic power in solid medium (MIC); assay type: cell-based; conditions: Pseudomonas aeruginosa, LRP9, read-out: Minimum inhibiting concentration
Excerpt: as §2

[12] = system: Klelsiella pneumoniae LRP 54; assay: Bacteriostatic power in solid medium (MIC); assay type: cell-based; conditions: read-out: Minimum inhibiting concentration
Excerpt: as §2

[13] = system: Corynebacterium diphteriae LRP 24; assay: Bacteriostatic power in solid medium (MIC); assay type: cell-based; conditions: Corynebacterium, LRP24, read-out: Minimum inhibiting concentration
Excerpt: as §2

Bacillus subtilis LRP 25 = assay: Bacteriostatic power in solid medium (MIC); assay type: cell-based; conditions: Bacillus subtilis, LRP25, read-out: Minimum inhibiting concentration
Excerpt: as §2

[14] = system: Acholeplasma laidlawii ATCC 23206 LRP 204; assay: Bacteriostatic power in solid medium (MIC); assay type: cell-based; conditions: Acholeplasma laidlawii, ATCC23206, read-out: Minimum inhibiting concentration
Excerpt: as §2

Escherichia coli LRP 50 = assay: Bacteriostatic power in solid medium (MIC); assay type: cell-based; conditions: Escherichia coli, LRP50, read-out: Minimum inhibiting concentration
Excerpt: as §2

[15] = system: Streptococcus pyogenes ATCC 8668 LRP 197; assay: Bacteriostatic power in solid medium (MIC); assay type: cell-based; conditions: Streptococcus pyogenes, ATCC8668, read-out: Minimum inhibiting concentration
Excerpt: as §2

[16] = system: Streptococcus pneumoniae ATCC 6303 LRP 35; assay: Bacteriostatic power in solid medium (MIC); assay type: cell-based; conditions: Streptococcus pneumoniae, ATCC6303, read-out: Minimum inhibiting concentration
Excerpt: as §2

[17] = system: Mycoplasma hominis I ATCC 14027 LRP 211; assay: Bacteriostatic power in solid medium (MIC); assay type: cell-based; conditions: Metamycoplasma hominis, ATCC14027, read-out: Minimum inhibiting concentration
Excerpt: as §2

[18] = system: Streptococcus faecalis LRP 7; assay: Bacteriostatic power in solid medium (MIC); assay type: cell-based; conditions: Enterococcus faecalis, LRP7, read-out: Minimum inhibiting concentration
Excerpt: as §2

[19] = system: Staphylococcus aureus ATCC 6538P LRP 39; assay: Bacteriostatic power in solid medium (MIC); assay type: cell-based; conditions: Staphylococcus aureus, ATCC6538P, read-out: Minimum inhibiting concentration
Excerpt: as §2

[20] = system: Staphylococcus aureus ATCC 14154 LRP 78; assay: Bacteriostatic power in solid medium (MIC); assay type: cell-based; conditions: Staphylococcus aureus, ATCC14154, read-out: Minimum inhibiting concentration
Excerpt: as §2

[21] = system: Fusobacteriumnecrophroum ATCC 27852 LRP 210; assay: Bacteriostatic power in solid medium (MIC); assay type: cell-based; conditions: read-out: Minimum inhibiting concentration
Excerpt: as §2

[22] = system: Neisseria gonorrhoeae ATCC 19424 LRP 214; assay: Bacteriostatic power in solid medium (MIC); assay type: cell-based; conditions: Neisseria gonorrhoeae, ATCC19424, read-out: Minimum inhibiting concentration
Excerpt: as §2

[23] = system: Haemophilus influenzae ATCC 19418 LRP 213; assay: Bacteriostatic power in solid medium (MIC); assay type: cell-based; conditions: Haemophilus influenzae, ATCC19418, read-out: Minimum inhibiting concentration
Excerpt: as §2

[24] = system: Micrococcus luteus ATCC 15957 LRP 193; assay: Bacteriostatic power in solid medium (MIC); assay type: cell-based; conditions: Micrococcus luteus, ATCC15957, read-out: Minimum inhibiting concentration
Excerpt: as §2

[25] = system: Micrococcus luteus ATCC 9341 LRP 6; assay: Bacteriostatic power in solid medium (MIC); assay type: cell-based; conditions: Micrococcus luteus, ATCC9341, read-out: Minimum inhibiting concentration
Excerpt: as §2

[26] = system: Streptococcus faecalis subsp. zymogenes ATCC 12958 LRP 61; assay: Bacteriostatic power in solid medium (MIC); assay type: cell-based; conditions: Enterococcus faecalis, ATCC12958, read-out: Minimum inhibiting concentration
Excerpt: as §2

[27] = system: Staphylococcus aureus ATCC 6538P LRP 14; assay: Bacteriostatic power in solid medium (MIC); assay type: cell-based; conditions: Staphylococcus aureus, ATCC6538P, read-out: Minimum inhibiting concentration
Excerpt: as §2

[28] = system: Streptococcus pneumoniae ATCC 6303 LRP 52; assay: Bacteriostatic power in solid medium (MIC); assay type: cell-based; conditions: Streptococcus pneumoniae, ATCC6303, read-out: Minimum inhibiting concentration
Excerpt: as §2

[29] = system: Clostridium perfrigens ATCC 3624 LRP 206; assay: microbe, parasite or virus in culture; assay type: cell-based; conditions: ATCC3624, solid medium, anaerobic, read-out: Minimum inhibiting concentration
Excerpt: as §2

Salmonella typhy LRP 8 = assay: microbe, parasite or virus in culture; assay type: cell-based; conditions: LRP8, solid medium, read-out: Minimum inhibiting concentration
Excerpt: as §2

[30] = system: Streptococcus pyogenes ATCC 8668 LRP 34; assay: Bacteriostatic power in liquid medium (MIC); assay type: cell-based; conditions: Streptococcus pyogenes, ATCC8668, read-out: Minimum inhibiting concentration
Excerpt: as §2

[31] = system: Corynebacterium diphteriae LRP 24; assay: Bacteriostatic power in liquid medium (MIC); assay type: cell-based; conditions: Corynebacterium, LRP24, read-out: Minimum inhibiting concentration
Excerpt: as §2

[32] = system: Streptococcus pneumoniae ATCC 6303 LRP 35; assay: Bacteriostatic power in liquid medium (MIC); assay type: cell-based; conditions: Streptococcus pneumoniae, ATCC6303, read-out: Minimum inhibiting concentration
Excerpt: as §2

[33] = system: Streptococcus faecalis subs. zymogenes ATCC 12958 LRP 61; assay: Bacteriostatic power in liquid medium (MIC); assay type: cell-based; conditions: Enterococcus faecalis, ATCC12958, read-out: Minimum inhibiting concentration
Excerpt: as §2

[34] = system: Staphylococcus aureus ATCC 6538 P LRP 39; assay: Bacteriostatic power in liquid medium (MIC); assay type: cell-based; conditions: Staphylococcus aureus, ATCC6538, read-out: Minimum inhibiting concentration
Excerpt: as §2

CC[C@H]1OC(=O)[C@H](C)[C@@H](O[C@H]2C[C@H](OC)[C@@H](O)[C@H](C)O2)[C@H](C)[C@@H](O[C@@H]2O[C@H](C)C[C@H](N(C)C)[C@H]2O)[C@](C)(O)C[C@](C)(F)C(=O)[C@H](C)[C@@H](O)[C@]1(C)O [P-80207, 3-O-oleandrosyl-5-O-desosaminyl-(8S)-8-fluoroerythronolide A]
half-life ([1]; pH 2): 10 h | half-life ([1]; pH 3): 100 h | MBC/MIC [2]: 8 | MBC ([2]; Streptococcus pyogenes, ATCC8668, read-out: Minimum bactericidal concentration (MBC)): 0.78 µg/mL (≈ 1.06 µM) | MBC/MIC [3]: 4 | MBC ([3]; Corynebacterium, LRP24, read-out: Minimum bactericidal concentration (MBC)): 0.195 µg/mL (≈ 0.264 µM) | MBC/MIC [4]: 8 | MBC ([4]; Enterococcus faecalis, read-out: Minimum bactericidal concentration (MBC)): 6.25 µg/mL (≈ 8.47 µM) | MBC/MIC [5]: 2 | MBC ([5]; Streptococcus pneumoniae, ATCC6303, read-out: Minimum bactericidal concentration (MBC)): 0.097 µg/mL (≈ 0.131 µM) | MBC/MIC [6]: 8 | MBC ([6]; Staphylococcus aureus, ATCC6538, read-out: Minimum bactericidal concentration (MBC)): 6.25 µg/mL (≈ 8.47 µM) | MIC (Shigella sonnei LRP 5): 25 µg/mL (≈ 33.9 µM) | MIC [7]: 25 µg/mL (≈ 33.9 µM) | MIC [8]: 3.12 µg/mL (≈ 4.23 µM) | MIC [9]: 0.049 µg/mL (≈ 0.0664 µM) | MIC [10]: 0.097 µg/mL (≈ 0.131 µM) | MIC [11]: 25 µg/mL (≈ 33.9 µM) | MIC [12]: 25 µg/mL (≈ 33.9 µM) | MIC [13]: 0.049 µg/mL (≈ 0.0664 µM) | MIC (Bacillus subtilis LRP 25): 0.39 µg/mL (≈ 0.529 µM) | MIC [14]: 3.12 µg/mL (≈ 4.23 µM) | MIC (Escherichia coli LRP 50): 25 µg/mL (≈ 33.9 µM) | MIC [15]: 0.097 µg/mL (≈ 0.131 µM) | MIC [16]: 0.049 µg/mL (≈ 0.0664 µM) | MIC [17]: 25 µg/mL (≈ 33.9 µM) | MIC [18]: 0.39 µg/mL (≈ 0.529 µM) | MIC [19]: 0.39 µg/mL (≈ 0.529 µM) | MIC [20]: 25 µg/mL (≈ 33.9 µM) | MIC [21]: 12.5 µg/mL (≈ 16.9 µM) | MIC [22]: 0.097 µg/mL (≈ 0.131 µM) | MIC [23]: 12.5 µg/mL (≈ 16.9 µM) | MIC [24]: 25 µg/mL (≈ 33.9 µM) | MIC [25]: 0.049 µg/mL (≈ 0.0664 µM) | MIC [26]: 0.39 µg/mL (≈ 0.529 µM) | MIC [27]: 0.39 µg/mL (≈ 0.529 µM) | MIC [28]: 0.049 µg/mL (≈ 0.0664 µM) | MIC [29]: 6.25 µg/mL (≈ 8.47 µM) | MIC (Salmonella typhy LRP 8): 25 µg/mL (≈ 33.9 µM) | MIC [30]: 0.097 µg/mL (≈ 0.131 µM) | MIC [31]: 0.049 µg/mL (≈ 0.0664 µM) | MIC [32]: 0.049 µg/mL (≈ 0.0664 µM) | MIC [33]: 0.78 µg/mL (≈ 1.06 µM) | MIC [34]: 0.78 µg/mL (≈ 1.06 µM)

— patent US4439426A, “Semisynthetic macrolidic antibiotics, intermediate compounds for their preparation and related pharmaceutical compositions containing them” (priority 1981, dated 1984)
